pIC50: −log10 of the molar value.
Assays:
[1] = test system: Total ATXN3 (tATXN3) protein; test: Endogenous Total ATXN3 (tATXN3) Protein Assay (MSD immunoassay of cell lysates); assay type: cell-based; conditions: average IC50, total ATXN3 protein in cell lysate after 48 h with compound (Table 1)
Method in brief: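 Cells in DMEM/10% FBS were plated at 10,000 per well onto 7-point, 3.16-fold compound dilutions in duplicate for 48 h at 37° C, then lysed. Total ATXN3 in lysates was measured by MSD sandwich immunoassay: mouse anti-ATXN3 capture, rabbit anti-ATXN3 detection, SULFO-TAG anti-rabbit. Average IC50 was reported in star bins.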

ATXN3 pre-mRNA = test: RT-qPCR Assay to Quantify Exon 4 Skipping in ATXN3 pre-mRNA in Cells; assay type: cell-based; conditions: percent exon 4 skipping in ATXN3 pre-mRNA, RT-qPCR of cell lysates; average IC50
Method in brief: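 Cells plated at 10,000/well onto a 7-point, 3.16-fold DMSO dilution series (duplicates), incubated 24 h at 37 °C, then lysed. Exon 4 skipping measured by one-step RT-qPCR (48 °C RT, 40 cycles); IC50 interpolated from dose-response fit of percent skipping.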

Row | Compound | pIC50 [1] | pIC50 (ATXN3 pre-mRNA)
1 | C/C=C/CNc1cc(Cl)nc2c(Br)c([C@@H]3CC=CC[C@H]3N)sc12.C/C=C/CNc1cc(Cl)nc2c(Br)c([C@H]3CC=CC[C@@H]3N)sc12 (mixture of isomers) [Compound 300, 2-((1R,6R)-6-aminocyclohex-3-en-1-yl)-3-bromo-N-((E)-but-2-en-1-yl)-5-chlorothieno[3,2-b]pyridin-7-amine and 2-((1S,6S)-6-aminocyclohex-3-en-1-yl)-3-bromo-N-((E)-but-2-en-1-yl)-5-chlorothieno[3,2-b]pyridin-7-amine] | 6.52 to 7.52 | 6.52 to 7.52
2 | N[C@@H]1COCC[C@H]1c1sc2c(NCc3ccccc3)cc(Cl)nc2c1Br.N[C@H]1COCC[C@@H]1c1sc2c(NCc3ccccc3)cc(Cl)nc2c1Br (mixture of isomers) [Compound 328, 2-((3R,4S)-3-aminotetrahydro-2H-pyran-4-yl)-N-benzyl-3-bromo-5-chlorothieno[3,2-b]pyridin-7-amine and 2-((3S,4R)-3-aminotetrahydro-2H-pyran-4-yl)-N-benzyl-3-bromo-5-chlorothieno[3,2-b]pyridin-7-amine] | 6.52 to 7.52 | 6.52 to 7.52
3 | C#Cc1c([C@@H]2CCOC[C@H]2N)sc2c(NCc3ccco3)nc(Cl)nc12.C#Cc1c([C@H]2CCOC[C@@H]2N)sc2c(NCc3ccco3)nc(Cl)nc12 (mixture of isomers) [Compound 330, 6-((3R,4S)-3-aminotetrahydro-2H-pyran-4-yl)-2-chloro-7-ethynyl-N-(furan-2-ylmethyl)thieno[3,2-d]pyrimidin-4-amine and 6-((3S,4R)-3-aminotetrahydro-2H-pyran-4-yl)-2-chloro-7-ethynyl-N-(furan-2-ylmethyl)thieno[3,2-d]pyrimidin-4-amine] | 6.52 to 7.52 | 6.52 to 7.52
4 | Cc1c([C@@H]2CCC[C@H](F)[C@H]2N)sc2c(NCc3cccs3)cc(Cl)nc12.Cc1c([C@H]2CCC[C@@H](F)[C@@H]2N)sc2c(NCc3cccs3)cc(Cl)nc12 (mixture of isomers) [Compound 342, 2-((1R,2S,3S)-2-amino-3-fluorocyclohexyl)-5-chloro-3-methyl-N-(thiophen-2-ylmethyl)thieno[3,2-b]pyridin-7-amine and 2-((1S,2R,3R)-2-amino-3-fluorocyclohexyl)-5-chloro-3-methyl-N-(thiophen-2-ylmethyl)thieno[3,2-b]pyridin-7-amine] | 6.52 to 7.52 | 6.52 to 7.52
5 | N[C@@H]1CCCO[C@H]1c1c(Cl)c2nc(Cl)nc(NCc3cccs3)c2n1C(F)F.N[C@H]1CCCO[C@@H]1c1c(Cl)c2nc(Cl)nc(NCc3cccs3)c2n1C(F)F (mixture of isomers) [Compound 346, 6-((2S,3S)-3-aminotetrahydro-2H-pyran-2-yl)-2,7-dichloro-5-(difluoromethyl)-N-(thiophen-2-ylmethyl)-5H-pyrrolo[3,2-d]pyrimidin-4-amine and 6-((2R,3R)-3-aminotetrahydro-2H-pyran-2-yl)-2,7-dichloro-5-(difluoromethyl)-N-(thiophen-2-ylmethyl)-5H-pyrrolo[3,2-d]pyrimidin-4-amine] | 6.52 to 7.52 | 6.52 to 7.52
6 | N[C@@H]1CCCC[C@H]1c1sc2c(NCc3cccs3)cc(Cl)nc2c1C(F)(F)F.N[C@H]1CCCC[C@@H]1c1sc2c(NCc3cccs3)cc(Cl)nc2c1C(F)(F)F (mixture of isomers) [Compound 356, 2-((1S,2S)-2-aminocyclohexyl)-5-chloro-N-(thiophen-2-ylmethyl)-3-(trifluoromethyl)thieno[3,2-b]pyridin-7-amine and 2-((1R,2R)-2-aminocyclohexyl)-5-chloro-N-(thiophen-2-ylmethyl)-3-(trifluoromethyl)thieno[3,2-b]pyridin-7-amine] | 6.52 to 7.52 | 6.52 to 7.52
7 | Cc1c([C@@H]2CC=CC[C@H]2N)n(C(F)F)c2c(NCc3ccco3)nc(Cl)nc12.Cc1c([C@H]2CC=CC[C@@H]2N)n(C(F)F)c2c(NCc3ccco3)nc(Cl)nc12 (mixture of isomers) [Compound 358, 6-((1R,6R)-6-aminocyclohex-3-en-1-yl)-2-chloro-5-(difluoromethyl)-N-(furan-2-ylmethyl)-7-methyl-5H-pyrrolo[3,2-d]pyrimidin-4-amine and 6-((1S,6S)-6-aminocyclohex-3-en-1-yl)-2-chloro-5-(difluoromethyl)-N-(furan-2-ylmethyl)-7-methyl-5H-pyrrolo[3,2-d]pyrimidin-4-amine] | 6.52 to 7.52 | 6.52 to 7.52
8 | N[C@@H]1CCCC(F)(F)[C@@H]1c1sc2c(NCc3cccs3)cc(Cl)nc2c1Br.N[C@H]1CCCC(F)(F)[C@H]1c1sc2c(NCc3cccs3)cc(Cl)nc2c1Br (mixture of isomers) [Compound 359, 2-((1R,6R)-6-amino-2,2-difluorocyclohexyl)-3-bromo-5-chloro-N-(thiophen-2-ylmethyl)thieno[3,2-b]pyridin-7-amine and 2-((1S,6S)-6-amino-2,2-difluorocyclohexyl)-3-bromo-5-chloro-N-(thiophen-2-ylmethyl)thieno[3,2-b]pyridin-7-amine] | 6.52 to 7.52 | 6.52 to 7.52
9 | N[C@@H]1CC=CC[C@H]1c1sc2c(NCc3cccs3)cc(Cl)nc2c1I.N[C@H]1CC=CC[C@@H]1c1sc2c(NCc3cccs3)cc(Cl)nc2c1I (mixture of isomers) [Compound 365, 2-((1R,6R)-6-aminocyclohex-3-en-1-yl)-5-chloro-3-iodo-N-(thiophen-2-ylmethyl)thieno[3,2-b]pyridin-7-amine and 2-((1S,6S)-6-aminocyclohex-3-en-1-yl)-5-chloro-3-iodo-N-(thiophen-2-ylmethyl)thieno[3,2-b]pyridin-7-amine] | 6.52 to 7.52 | 6.52 to 7.52
10 | N[C@@H]1CC=CC[C@H]1c1sc2c(NCc3cccs3)nc(Cl)nc2c1Cl.N[C@H]1CC=CC[C@@H]1c1sc2c(NCc3cccs3)nc(Cl)nc2c1Cl (mixture of isomers) [Compound 397, 6-((1R,6R)-6-aminocyclohex-3-en-1-yl)-2,7-dichloro-N-(thiophen-2-ylmethyl)thieno[3,2-d]pyrimidin-4-amine and 6-((1S,6S)-6-aminocyclohex-3-en-1-yl)-2,7-dichloro-N-(thiophen-2-ylmethyl)thieno[3,2-d]pyrimidin-4-amine] | 6.00 to 6.52 | 6.00 to 6.52
11 | N[C@@H]1CCCC[C@H]1c1c(Cl)c2nc(Cl)nc(NCc3ccccc3)c2n1C(F)F.N[C@H]1CCCC[C@@H]1c1c(Cl)c2nc(Cl)nc(NCc3ccccc3)c2n1C(F)F (mixture of isomers) [Compound 418, 6-((1S,2S)-2-aminocyclohexyl)-N-benzyl-2,7-dichloro-5-(difluoromethyl)-5H-pyrrolo[3,2-d]pyrimidin-4-amine and 6-((1R,2R)-2-aminocyclohexyl)-N-benzyl-2,7-dichloro-5-(difluoromethyl)-5H-pyrrolo[3,2-d]pyrimidin-4-amine] | 6.52 to 7.52 | 6.52 to 7.52
12 | N[C@@H]1CC=CC[C@H]1c1sc2c(NCc3cccs3)cc(Cl)nc2c1Cl.N[C@H]1CC=CC[C@@H]1c1sc2c(NCc3cccs3)cc(Cl)nc2c1Cl (mixture of isomers) [Compound 431, 2-((1R,6R)-6-aminocyclohex-3-en-1-yl)-3,5-dichloro-N-(thiophen-2-ylmethyl)thieno[3,2-b]pyridin-7-amine and 2-((1S,6S)-6-aminocyclohex-3-en-1-yl)-3,5-dichloro-N-(thiophen-2-ylmethyl)thieno[3,2-b]pyridin-7-amine] | ≥ 7.52 | ≥ 7.52

— US20250382305A1 (PTC THERAPEUTICS, INC., priority 2022, published 2025)
